# Laboratory results as given in patent US4348410A, “Cyclohexane carboxylic acid derivatives” (Nippon Chemiphar Co., Ltd., priority 1979, dated 1982).
# Read-outs that look alike come from different tables or passages of the source.
# Experiments:
# Acute toxicity = conditions: mouse, in vivo, po, 7 days observation
# Experimental: […]. The test drugs were given orally using gastric sonde. […] The LD50 value was calculated by the Probit method (C.I. Bliss).
# urokinase = urokinase (Homo sapiens, UniProt P00749); assay: Inhibitory effects on urokinase (hydrolysis of N-acetylglycyl lysine methyl ester); assay type: biochemical; conditions: 37° C., 10 minutes; concentration not given
# trypsin = target: T1, trypsin (Bos taurus, UniProt P00760); assay: Inhibitory effects on trypsin (hydrolysis of p-tosylarginine methyl ester); assay type: biochemical; conditions: 37° C., 10 minutes; concentration not given
# T1 sequence (P00760 24-246): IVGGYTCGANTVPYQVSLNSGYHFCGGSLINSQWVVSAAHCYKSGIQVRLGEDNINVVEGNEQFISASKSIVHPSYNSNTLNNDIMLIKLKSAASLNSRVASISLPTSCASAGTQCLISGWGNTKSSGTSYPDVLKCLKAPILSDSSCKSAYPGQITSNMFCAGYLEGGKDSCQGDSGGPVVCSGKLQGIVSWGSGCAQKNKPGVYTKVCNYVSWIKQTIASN
# Experimental: In particular, inhibitory effects of the compounds on hydrolysis of p-tosylarginine methyl ester by trypsin were examined (incubated at 37° C. for 10 minutes).
# gastric secretion = assay: Influence to the gastric secretion (pylorus ligation); assay type: in vivo, Male Sprague-Dawley strain rats
# Experimental: Male Sprague-Dawley strain rats, weighing 160-180 g were deprived of food but allowed free access to water for 20 hours prior to experiment. […] The test drug was given intraperitoneally immediately after pylorus ligation. The rats were sacrificed 3, 6 and 12 hours later and the stomachs removed. The gastric juice was collected and analyzed for volume. Then the gastric juice was centrifuged at 1300 g for 10 minutes at room temperature to give the supernatant. The total acidity and peptic activity of the supernatant were determined. Total acidity was determined by titrating with 0.01 N NaOH. […] Total acidity is shown as the titration volume (ml) and peptic activity is shown as the corresponding weight (mg) to crystal pepsin.
# [1] = tested on: cysteamine-induced duodenal ulcers; assay: Duodenal ulcers (cysteamine-induced); assay type: in vivo, Female Sprague-Dawley strain rats
# Experimental: Female Sprague-Dawley strain rats, weighing about 200 g were deprived of food for 24 hours prior to experiment. Cysteamine 400 mg/kg was given subcutaneously once to the rats. The animals were provided food and libitum from the 7 hours later. The test drug was given orally as aqueous suspension after 7 hours, the administration of cysteamine, then daily×4. On the next morning of the last administration, the animals were sacrificed under ether anesthesia. The ulcer area (mm^2) was measured and described as ulcer index.
# Shay ulcers = Shay ulcers (pylorus ligation); assay type: in vivo, Male Sprague-Dawley strain rats; conditions: for Ulcer Grade 0 (number of rats): 0=no lesion; for Ulcer Grade 1 (number of rats): 1=hemorrhagic suffusion; for Ulcer Grade 2 (number of rats): 2=1-5 small ulcers (<3 mm); for Ulcer Grade 3 (number of rats): 3=many small ulcers (more than 5) or 1 ulcer of marked size; for Ulcer Grade 4 (number of rats): 4=many ulcers of marked size; for Ulcer Grade 5 (number of rats): 5=perforated ulcer
# Experimental: The rats were sacrificed 18 hours later by an overdose of ether and the stomach removed. The stomach was incised along the greater curvature and the surface area of each lesion in forestomach was measured by the naked eye. […] 4=many ulcers of marked size 5=perforated ulcer The test drugs were given intraperitoneally, immediately after pylorus ligation.
# thrombin = thrombin (Bos taurus, UniProt P00735); assay: Inhibitory effects on thrombin (hydrolysis of p-tosylarginine methyl ester); assay type: biochemical; conditions: 37° C., 10 minutes; concentration not given
compound,measurement,setting,value
N=C(N)NC[C@H]1CC[C@H](C(=O)Oc2ccccc2C(=O)OCc2ccccc2)CC1 [Compound 1],LD50 at 168 h,"Acute toxicity; female mice, read-out: LD50 Female",> 8000 mg/kg
same,LD50 at 168 h,"Acute toxicity; male mice, read-out: LD50 male",7600 mg/kg
same,Inhibition (%) Urokinase,urokinase,32%
same,Inhibition (%) Trypsin,trypsin,79%
same,Gastric Contents Volume,"gastric secretion; 3 hours, 75 mg/kg i.p.",2.6 ± 0.4 mL
same,Gastric Contents Volume % change,"gastric secretion; 3 hours, 75 mg/kg i.p.",10.3%
same,Titratable Acid Output,"gastric secretion; 3 hours, 75 mg/kg i.p.",39.2 ± 11.6 μEg
same,Titratable Acid Output % change,"gastric secretion; 3 hours, 75 mg/kg i.p.",52.5%
same,Titratable Pepsin Output,"gastric secretion; 3 hours, 75 mg/kg i.p.",5.7 ± 1.5 mg
same,Titratable Pepsin Output % change,"gastric secretion; 3 hours, 75 mg/kg i.p.",1.7%
same,Gastric Contents Volume,"gastric secretion; 3 hours, 150 mg/kg i.p.",0.7 ± 0.3 mL
same,Gastric Contents Volume % change,"gastric secretion; 3 hours, 150 mg/kg i.p.",75.9%
same,Titratable Acid Output,"gastric secretion; 3 hours, 150 mg/kg i.p.",9.8 ± 3.3 μEg
same,Titratable Acid Output % change,"gastric secretion; 3 hours, 150 mg/kg i.p.",88.1%
same,Titratable Pepsin Output,"gastric secretion; 3 hours, 150 mg/kg i.p.",1.4 ± 0.7 mg
same,Titratable Pepsin Output % change,"gastric secretion; 3 hours, 150 mg/kg i.p.",75.9%
same,Gastric Contents Volume,"gastric secretion; 3 hours, 300 mg/kg i.p.",0.5 ± 0.2 mL
same,Gastric Contents Volume % change,"gastric secretion; 3 hours, 300 mg/kg i.p.",82.8%
same,Titratable Acid Output,"gastric secretion; 3 hours, 300 mg/kg i.p.",4.6 ± 3.3 μEg
same,Titratable Acid Output % change,"gastric secretion; 3 hours, 300 mg/kg i.p.",94.4%
same,Titratable Pepsin Output,"gastric secretion; 3 hours, 300 mg/kg i.p.",0.9 ± 0.6 mg
same,Titratable Pepsin Output % change,"gastric secretion; 3 hours, 300 mg/kg i.p.",84.5%
same,Gastric Contents Volume,"gastric secretion; 6 hours, 75 mg/kg i.p.",4.2 ± 0.6 mL
same,Gastric Contents Volume % change,"gastric secretion; 6 hours, 75 mg/kg i.p.",31.1%
same,Titratable Acid Output,"gastric secretion; 6 hours, 75 mg/kg i.p.",259.8 ± 61.8 μEq
same,Titratable Acid Output % change,"gastric secretion; 6 hours, 75 mg/kg i.p.",32.0%
same,Titratable Pepsin Output,"gastric secretion; 6 hours, 75 mg/kg i.p.",13.9 ± 3.0 mg
same,Titratable Pepsin Output % change,"gastric secretion; 6 hours, 75 mg/kg i.p.",35.9%
same,Gastric Contents Volume,"gastric secretion; 6 hours, 150 mg/kg i.p.",1.5 ± 0.3 mL
same,Gastric Contents Volume % change,"gastric secretion; 6 hours, 150 mg/kg i.p.",75.4%
same,Titratable Acid Output,"gastric secretion; 6 hours, 150 mg/kg i.p.",85.3 ± 49.4 μEq
same,Titratable Acid Output % change,"gastric secretion; 6 hours, 150 mg/kg i.p.",77.7%
same,Titratable Pepsin Output,"gastric secretion; 6 hours, 150 mg/kg i.p.",4.7 ± 1.1 mg
same,Titratable Pepsin Output % change,"gastric secretion; 6 hours, 150 mg/kg i.p.",78.3%
same,Gastric Contents Volume,"gastric secretion; 6 hours, 300 mg/kg i.p.",1.5 ± 0.3 mL
same,Gastric Contents Volume % change,"gastric secretion; 6 hours, 300 mg/kg i.p.",75.4%
same,Titratable Acid Output,"gastric secretion; 6 hours, 300 mg/kg i.p.",70.4 ± 30.4 μEq
same,Titratable Acid Output % change,"gastric secretion; 6 hours, 300 mg/kg i.p.",81.6%
same,Titratable Pepsin Output,"gastric secretion; 6 hours, 300 mg/kg i.p.",3.5 ± 1.4 mg
same,Titratable Pepsin Output % change,"gastric secretion; 6 hours, 300 mg/kg i.p.",83.9%
same,Gastric Contents Volume,"gastric secretion; 12 hours, 75 mg/kg i.p.",5.2 ± 2.1 mL
same,Gastric Contents Volume % change,"gastric secretion; 12 hours, 75 mg/kg i.p.",61.5%
same,Titratable Acid Output,"gastric secretion; 12 hours, 75 mg/kg i.p.",394.6 ± 136.5 μEq
same,Titratable Acid Output % change,"gastric secretion; 12 hours, 75 mg/kg i.p.",51.9%
same,Titratable Pepsin Output,"gastric secretion; 12 hours, 75 mg/kg i.p.",27.3 ± 8.6 mg
same,Titratable Pepsin Output % change,"gastric secretion; 12 hours, 75 mg/kg i.p.",52.9%
same,Gastric Contents Volume,"gastric secretion; 12 hours, 150 mg/kg i.p.",6.3 ± 0.9 mL
same,Gastric Contents Volume % change,"gastric secretion; 12 hours, 150 mg/kg i.p.",53.3%
same,Titratable Acid Output,"gastric secretion; 12 hours, 150 mg/kg i.p.",387.3 ± 79.3 μEq
same,Titratable Acid Output % change,"gastric secretion; 12 hours, 150 mg/kg i.p.",52.8%
same,Titratable Pepsin Output,"gastric secretion; 12 hours, 150 mg/kg i.p.",24.0 ± 4.2 mg
same,Titratable Pepsin Output % change,"gastric secretion; 12 hours, 150 mg/kg i.p.",58.6%
same,Gastric Contents Volume,"gastric secretion; 12 hours, 300 mg/kg i.p.",3.6 ± 0.6 mL
same,Gastric Contents Volume % change,"gastric secretion; 12 hours, 300 mg/kg i.p.",73.3%
same,Titratable Acid Output,"gastric secretion; 12 hours, 300 mg/kg i.p.",258.4 ± 66.9 μEq
same,Titratable Acid Output % change,"gastric secretion; 12 hours, 300 mg/kg i.p.",68.5%
same,Titratable Pepsin Output,"gastric secretion; 12 hours, 300 mg/kg i.p.",14.0 ± 2.4 mg
same,Titratable Pepsin Output % change,"gastric secretion; 12 hours, 300 mg/kg i.p.",75.9%
same,Inhibition (%),[1]; 250 mg/kg orally,72.1%
same,Ulcer Index (mm^2),[1]; 250 mg/kg orally,22.5 ± 3.9 mm^2
same,Inhibition (%),[1]; 500 mg/kg orally,85.5%
same,Ulcer Index (mm^2),[1]; 500 mg/kg orally,11.7 ± 3.6 mm^2
same,Ulcer Grade 0 (number of rats),Shay ulcers; 75 mg/kg i.p.,8
same,Ulcer Grade 1 (number of rats),Shay ulcers; 75 mg/kg i.p.,0
same,Ulcer Grade 2 (number of rats),Shay ulcers; 75 mg/kg i.p.,2
same,Ulcer Grade 3 (number of rats),Shay ulcers; 75 mg/kg i.p.,0
same,Ulcer Grade 4 (number of rats),Shay ulcers; 75 mg/kg i.p.,0
same,Ulcer Grade 5 (number of rats),Shay ulcers; 75 mg/kg i.p.,0
same,Ulcer Grade 0 (number of rats),Shay ulcers; 150 mg/kg i.p.,10
same,Ulcer Grade 1 (number of rats),Shay ulcers; 150 mg/kg i.p.,0
same,Ulcer Grade 2 (number of rats),Shay ulcers; 150 mg/kg i.p.,0
same,Ulcer Grade 3 (number of rats),Shay ulcers; 150 mg/kg i.p.,0
same,Ulcer Grade 4 (number of rats),Shay ulcers; 150 mg/kg i.p.,0
same,Ulcer Grade 5 (number of rats),Shay ulcers; 150 mg/kg i.p.,0
same,Ulcer Grade 0 (number of rats),Shay ulcers; 300 mg/kg i.p.,7
same,Ulcer Grade 1 (number of rats),Shay ulcers; 300 mg/kg i.p.,0
same,Ulcer Grade 2 (number of rats),Shay ulcers; 300 mg/kg i.p.,0
same,Ulcer Grade 3 (number of rats),Shay ulcers; 300 mg/kg i.p.,0
same,Ulcer Grade 4 (number of rats),Shay ulcers; 300 mg/kg i.p.,0
same,Ulcer Grade 5 (number of rats),Shay ulcers; 300 mg/kg i.p.,0
same,Inhibition (%) Thrombin,thrombin,37%
